According to publication PMC7497641, “Neurotropic activity and safety of methylene-cycloalkylacetate (MCA) derivative 3-(3-allyl-2-methylenecyclohexyl) propanoic acid” (ACS Chemical Neuroscience, 2020):

Assays:
[1] = target: T1, 5-Hydroxy-tryptamine (Serotonin) Receptor 3A (HTR3A) (Homo sapiens, UniProt P46098); test: SAFETYscan Ion channel assay; type: cell-based
T1 construct: host or cells: unnamed DiscoverX cell line

[2] = target: T2, Monoamine oxidase type A (MAOA) (Homo sapiens, UniProt P21397); test: SAFETYscan Enzymatic assay; type: biochemical; conditions: Inhibitor
T2 construct: purchased Sigma-Aldrich-Merck

[3] = target: Adrenergic Receptor α1A (ADRA1A) (Homo sapiens, UniProt P35348); test: SAFETYscan GPCR Calcium Flux; type: cell-based
TRKC = target: T3, TRKC (Homo sapiens, UniProt Q16288); test: PhosphoSens CSox based kinase assay; type: biochemical; conditions: 5 μM HU-MCA-13; no effect on initial rate, small delay in later stage of progress curve
T3 construct: TRKC, amino acids 45 6-825, BPS Bio; purchased BPS Bio 40282 (lot 140205-G2)
Text: (§1) The initial focus was to measure the modulatory activity in vitro of MCA-13 on protein kinases which were reported to be involved in induction of neurite outgrowth.[18],[43] To do this, we took advantage of a powerful method to measure the activity of recombinant protein kinases using a homogeneous and continuous (kinetic) format, where the level of chelation-enhanced fluorescence (CHEF) is directly proportional to the amount of phosphorylated, real-time sensors consisting of sulfonamido-oxine (Sox) chromophore linked to a peptide or protein substrates of selective kinases.[44] This assay is ideal for elucidating drug mechanism of action and is increasingly being applied earlier in the drug development workflow to address off target effects and/or the challenges and opportunities for next generation protein kinase inhibitors.[45] Since neurotrophins induce neurite outgrowth by activating the different tropomyosin kinase receptors (Trk), and small molecules agonists of Trk receptors can selectively activate Trks,[46] we first investigated the ability of HU-MCA-13 to modulate TRKA, TRKB and TRKC phosphorylation activities (Supporting Information, Figure S3-2). […] The TRKs constructs used in the assay contained only the intracellular kinase domain (amino acids 442–786) and therefore presently we cannot exclude that HU-MCA-13 may interact with the TRKs extracellular domain thereby inducing the conformational change required for the kinase domain activation. […] Moreover, no effects of HU-MCA-13were found on other kinases (ASK1, ERK2, JNK3, p38α, CDK5, KDR-VEGFR, AKT1, GSK3β, PDGFRβ, PKACα, PKC, CK1, IKKβ) which stimulate neurite outgrowth. Also, no effects were observed of HU-MCA-13 on kinases (EGFR, IGF1R, FGFR 1 and 2, CAMK2α,) which inhibit neurite outgrowth or calcineurin phosphatase which dephosphorylates the neurite outgrowth stimulatory protein, cofilin.[47]
(§2) MCA-13 safety b y in vitro eval uati on usi ng Phos pho Sens®C Soxb ased kinase […]
(§3) Method: Kinase Activity Measurements
(§4) Kinase activity was measured continuously using the PhosphoSens®technology (AssayQuant Technologies Inc., Marlborough, MA) according to the manufacturers’ recommendations (http://www.assayquant.com/) . This one-step homogeneous assay use s chelation-enh anced fluorescence via optimized substrate sensors unique for each kinase, containing the unnatural fluorogenic amino-acid Sox.
(§5) The following kinases which, upon stimulation or inhibition with small molecule modulators, induced neurite outgrowth, were obtained from different companies and were used in this study at the following concentrations: 2.
(§6) 25 µL final reaction volume including : 2.5 µl Sox-based substrate (10 x), 17.5 µl reaction mix with AT P, 5.0 µL Kinase [5x in EDB (Enzyme Dilution Buffer : 20 mM TRIS, pH 8.0, 0.01% Brij -35, 0.1 mM EGTA, 5% Glycerol, 1 mM DTT, 1 mg/mL Bovine Serum Albumin]. 5-45 min preincubation (all except EDB/kinase) at 30 °C of substrate in reaction mix and ATP ensuring that the progress kinetic curve for the background fluorescence w as flat. Reaction was run at 30 °C for […]
(§7) Final Reaction Conditions.
(§8) Protein kinase activity was determined in 54 mM HEPES, pH 7.5 1 mM ATP 1.2 mM DTT (none in ASK1) 0.012% Brij-35 1% glycerol 0.2 mg/ml BSA 0.52 mM EGTA (none in assays of CAMK2α, PKCε, PKCι, Calcineurin A/B) 140 µM phosphatidylserine/3.8 µM diacylglycerol (PKCε, PKCι only) 5 ng/µl calmodulin/0.4 mM CaCl2 (CAMK2α, Calcineurin A/B only) 10 mM […]
(§9) IKKβ, AKT1, GSK3β, PKCε, PKCι, PKACα, KDR, CK1δ, EGFR, ASK1, IGF1R, CAMK2α, DLK, FGFR2, FGFR1) in the presence or absence of 5 µ M H U-MCA-13 test compound. All components e xcept enzyme were equilibrated to 30 °C prior to setting up reactions run in Corning, 384-well, white flat round bottom polystyrene NBS microplates (Cat. #3824) after sealing using optically-clear adhesive film [TopSealA -Plus plate seal, PerkinElmer (Cat. #6050185)], applied with a roller to eliminate evaporation and resulting drift. Europium was added to a final […]

TRK B = target: T4, TRK B (Homo sapiens, UniProt Q16620); test: PhosphoSens CSox based kinase assay; type: biochemical; conditions: 5 μM HU-MCA-13; intracellular kinase domain
T4 construct: TRKB, amino acids 456 -822, BPS Bio; purchased BPS Bio 40281 (lot 130826)
Text: as §1, §2, §3, §4, §5, §6, §7, §8, §9

PKC = test: PhosphoSens CSox based kinase assay; type: biochemical; conditions: 5 μM HU-MCA-13
Text: as §1, §2, §3, §4, §5, §6, §7, §8, §9

KDR-VEGFR = target: T5, KDR-VEGFR (Homo sapiens, UniProt P35968); test: PhosphoSens CSox based kinase assay; type: biochemical; conditions: 5 μM HU-MCA-13
T5 construct: KDR, amino acids 790 -1356, Carna (cat. & lot #: 08 -191,; purchased Carna 08-191
Text: as §1, §2, §3, §4, §5, §6, §7, §8, §9

CAMK2α = target: T6, CAMK2α (Homo sapiens, UniProt Q9UQM7); test: PhosphoSens CSox based kinase assay; type: biochemical; conditions: 5 μM HU-MCA-13
T6 construct: amino acids 1-478, Carna (cat. & lot #: 02)
Text: as §1, §2, §3, §4, §5, §6, §7, §8, §9

PDGFRβ = target: T7, PDGFRβ (Homo sapiens, UniProt P09619); test: PhosphoSens CSox based kinase assay; type: biochemical; conditions: 5 μM HU-MCA-13
T7 construct: PDGFRβ, amino acids 557 -1106, Carna; purchased Carna 08-158
Text: as §1, §2, §3, §4, §5, §6, §7, §8, §9

JNK3 = target: T8, JNK3 (Homo sapiens, UniProt P53779); test: PhosphoSens CSox based kinase assay; type: biochemical; conditions: 5 μM HU-MCA-13
T8 construct: JNK 3, amino acids 1 -426, Carna; purchased Carna 04-150
Text: as §1, §2, §3, §4, §5, §6, §7, §8, §9

CK1 = target: T9, CK1 (Homo sapiens, UniProt P48730); test: PhosphoSens CSox based kinase assay; type: biochemical; conditions: 5 μM HU-MCA-13
T9 construct: CK1δ, amino acids 1 -294, Carna; purchased Carna 03-103
Text: as §1, §2, §3, §4, §5, §6, §7, §8, §9

[4] = target: Adenosine Receptor A2A (ADORA2A) (Homo sapiens, UniProt P29274); test: SAFETYscan GPCR Calcium Flux; type: cell-based; conditions: for MCA-13 Max. Responce: 10 μM
Adenosine Receptor A2A (ADORA2A), sequence (P29274 whole entry): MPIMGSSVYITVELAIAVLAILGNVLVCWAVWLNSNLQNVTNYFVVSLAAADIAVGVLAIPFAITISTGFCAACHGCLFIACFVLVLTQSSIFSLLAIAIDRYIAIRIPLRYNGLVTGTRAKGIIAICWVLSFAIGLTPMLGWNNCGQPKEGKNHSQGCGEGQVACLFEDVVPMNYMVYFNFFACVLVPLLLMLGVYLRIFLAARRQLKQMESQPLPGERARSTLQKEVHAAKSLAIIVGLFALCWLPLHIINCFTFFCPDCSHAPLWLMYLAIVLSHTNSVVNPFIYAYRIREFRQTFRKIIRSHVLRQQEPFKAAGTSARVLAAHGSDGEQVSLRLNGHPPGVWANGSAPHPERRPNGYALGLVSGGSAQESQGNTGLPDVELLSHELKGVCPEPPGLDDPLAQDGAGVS

T2 sequence (P21397 whole entry): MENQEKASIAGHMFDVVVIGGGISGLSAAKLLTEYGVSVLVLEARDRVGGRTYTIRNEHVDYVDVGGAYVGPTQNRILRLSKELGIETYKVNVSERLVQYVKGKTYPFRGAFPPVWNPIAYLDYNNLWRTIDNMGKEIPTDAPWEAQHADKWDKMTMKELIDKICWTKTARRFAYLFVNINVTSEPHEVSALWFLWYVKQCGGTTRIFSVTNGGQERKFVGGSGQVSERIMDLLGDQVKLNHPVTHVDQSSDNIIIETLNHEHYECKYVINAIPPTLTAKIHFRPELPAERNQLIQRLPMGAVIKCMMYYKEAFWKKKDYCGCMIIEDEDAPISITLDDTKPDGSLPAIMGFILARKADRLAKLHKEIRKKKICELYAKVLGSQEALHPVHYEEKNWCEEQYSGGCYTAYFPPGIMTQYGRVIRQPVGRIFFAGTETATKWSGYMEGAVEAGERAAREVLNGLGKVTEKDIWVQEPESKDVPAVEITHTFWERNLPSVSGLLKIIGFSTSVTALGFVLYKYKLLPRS
Adrenergic Receptor α1A (ADRA1A), sequence (P35348 whole entry): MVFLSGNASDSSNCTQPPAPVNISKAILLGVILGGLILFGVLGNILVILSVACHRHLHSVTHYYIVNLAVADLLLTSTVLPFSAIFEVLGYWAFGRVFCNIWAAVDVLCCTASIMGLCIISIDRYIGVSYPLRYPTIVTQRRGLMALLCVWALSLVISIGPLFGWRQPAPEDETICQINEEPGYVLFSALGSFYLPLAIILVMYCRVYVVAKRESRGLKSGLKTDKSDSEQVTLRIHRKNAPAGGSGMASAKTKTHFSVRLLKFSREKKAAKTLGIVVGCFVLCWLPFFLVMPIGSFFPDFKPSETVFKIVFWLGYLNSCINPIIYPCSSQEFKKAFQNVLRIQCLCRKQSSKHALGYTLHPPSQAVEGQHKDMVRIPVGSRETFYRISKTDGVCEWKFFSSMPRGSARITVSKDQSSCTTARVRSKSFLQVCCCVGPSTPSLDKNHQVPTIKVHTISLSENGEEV
T1 sequence (P46098 24-478): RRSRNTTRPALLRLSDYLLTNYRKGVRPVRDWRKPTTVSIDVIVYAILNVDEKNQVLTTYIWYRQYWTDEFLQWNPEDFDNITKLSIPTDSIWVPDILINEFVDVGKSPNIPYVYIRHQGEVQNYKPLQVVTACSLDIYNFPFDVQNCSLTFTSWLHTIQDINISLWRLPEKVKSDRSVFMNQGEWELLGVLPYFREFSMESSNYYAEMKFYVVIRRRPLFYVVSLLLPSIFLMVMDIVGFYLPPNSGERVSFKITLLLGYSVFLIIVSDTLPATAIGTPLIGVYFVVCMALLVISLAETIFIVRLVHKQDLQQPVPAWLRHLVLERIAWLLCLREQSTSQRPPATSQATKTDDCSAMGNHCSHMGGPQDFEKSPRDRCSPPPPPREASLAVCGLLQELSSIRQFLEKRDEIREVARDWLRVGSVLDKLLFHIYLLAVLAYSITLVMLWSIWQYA
T4 sequence (Q16620 456-822): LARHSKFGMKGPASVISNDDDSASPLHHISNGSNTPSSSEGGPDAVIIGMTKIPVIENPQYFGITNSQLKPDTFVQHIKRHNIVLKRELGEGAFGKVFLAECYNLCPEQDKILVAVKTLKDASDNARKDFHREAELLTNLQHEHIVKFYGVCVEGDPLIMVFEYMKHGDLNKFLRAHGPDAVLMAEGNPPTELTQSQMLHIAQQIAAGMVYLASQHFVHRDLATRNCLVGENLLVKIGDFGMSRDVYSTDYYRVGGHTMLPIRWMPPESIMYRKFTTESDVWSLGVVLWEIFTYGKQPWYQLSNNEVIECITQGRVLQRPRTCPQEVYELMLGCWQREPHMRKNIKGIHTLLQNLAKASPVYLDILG
T7 sequence (P09619 557-1106): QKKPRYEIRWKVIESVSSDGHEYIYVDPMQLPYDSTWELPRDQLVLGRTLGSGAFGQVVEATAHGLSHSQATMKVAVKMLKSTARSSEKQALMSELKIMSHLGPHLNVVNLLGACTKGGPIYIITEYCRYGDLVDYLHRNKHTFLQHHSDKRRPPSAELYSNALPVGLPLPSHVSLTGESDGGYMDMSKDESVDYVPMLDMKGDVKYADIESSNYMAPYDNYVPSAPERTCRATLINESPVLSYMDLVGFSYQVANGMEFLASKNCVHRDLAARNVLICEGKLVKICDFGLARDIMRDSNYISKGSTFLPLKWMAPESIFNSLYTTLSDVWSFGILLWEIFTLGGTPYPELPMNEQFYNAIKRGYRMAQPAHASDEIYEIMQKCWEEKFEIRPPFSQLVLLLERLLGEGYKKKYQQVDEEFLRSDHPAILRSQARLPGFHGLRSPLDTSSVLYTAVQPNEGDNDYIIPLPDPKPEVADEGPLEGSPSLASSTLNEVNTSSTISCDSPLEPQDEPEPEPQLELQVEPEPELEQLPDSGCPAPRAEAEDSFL
T9 sequence (P48730 1-294): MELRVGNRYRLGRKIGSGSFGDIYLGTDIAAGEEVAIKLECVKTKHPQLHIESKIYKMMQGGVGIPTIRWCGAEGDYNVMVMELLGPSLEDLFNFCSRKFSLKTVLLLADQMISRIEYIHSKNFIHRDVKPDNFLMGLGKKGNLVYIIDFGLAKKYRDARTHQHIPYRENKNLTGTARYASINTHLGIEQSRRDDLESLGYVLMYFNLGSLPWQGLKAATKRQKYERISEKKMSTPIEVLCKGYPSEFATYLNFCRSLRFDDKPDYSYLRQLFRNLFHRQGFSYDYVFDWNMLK
T5 sequence (P35968 790-1356): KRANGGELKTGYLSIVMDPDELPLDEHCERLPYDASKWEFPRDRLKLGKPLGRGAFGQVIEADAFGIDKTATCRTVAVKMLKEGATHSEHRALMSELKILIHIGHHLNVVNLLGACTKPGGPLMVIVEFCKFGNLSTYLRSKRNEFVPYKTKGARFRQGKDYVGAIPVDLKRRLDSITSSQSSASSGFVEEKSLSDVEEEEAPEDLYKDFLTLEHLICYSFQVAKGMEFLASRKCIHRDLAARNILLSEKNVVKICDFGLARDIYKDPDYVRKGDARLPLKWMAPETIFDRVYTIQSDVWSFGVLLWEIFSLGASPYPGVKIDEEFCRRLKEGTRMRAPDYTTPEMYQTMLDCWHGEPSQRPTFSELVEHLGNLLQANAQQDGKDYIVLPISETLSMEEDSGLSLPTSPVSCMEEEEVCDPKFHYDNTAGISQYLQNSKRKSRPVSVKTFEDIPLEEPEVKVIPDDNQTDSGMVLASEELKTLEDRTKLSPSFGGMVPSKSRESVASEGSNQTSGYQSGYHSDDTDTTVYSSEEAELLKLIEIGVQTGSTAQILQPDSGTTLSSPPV
T8 sequence (P53779 39-464): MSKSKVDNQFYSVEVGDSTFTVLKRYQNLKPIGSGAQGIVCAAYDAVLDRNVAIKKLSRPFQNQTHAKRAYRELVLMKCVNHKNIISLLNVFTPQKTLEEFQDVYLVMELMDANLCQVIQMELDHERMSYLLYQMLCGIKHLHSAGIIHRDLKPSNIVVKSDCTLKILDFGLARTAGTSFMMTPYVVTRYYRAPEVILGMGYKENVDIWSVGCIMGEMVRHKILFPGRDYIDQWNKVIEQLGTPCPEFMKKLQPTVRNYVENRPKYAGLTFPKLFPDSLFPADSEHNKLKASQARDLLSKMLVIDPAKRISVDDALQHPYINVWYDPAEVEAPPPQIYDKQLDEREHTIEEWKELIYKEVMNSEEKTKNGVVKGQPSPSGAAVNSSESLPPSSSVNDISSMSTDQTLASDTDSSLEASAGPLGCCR
T3 sequence (Q16288 456-825 isoform Q16288-3 limits assumed): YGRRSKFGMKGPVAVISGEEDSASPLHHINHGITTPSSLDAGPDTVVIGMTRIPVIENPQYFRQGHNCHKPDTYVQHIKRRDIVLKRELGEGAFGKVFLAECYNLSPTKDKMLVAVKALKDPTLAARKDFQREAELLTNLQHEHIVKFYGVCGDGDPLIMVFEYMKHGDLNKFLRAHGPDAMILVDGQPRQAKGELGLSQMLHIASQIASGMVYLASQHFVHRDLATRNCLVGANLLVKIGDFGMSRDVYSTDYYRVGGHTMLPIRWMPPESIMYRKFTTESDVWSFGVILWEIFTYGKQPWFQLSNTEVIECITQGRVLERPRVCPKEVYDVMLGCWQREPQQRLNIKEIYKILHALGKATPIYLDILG

## C=CCC1CCCC(CCC(=O)O)C1=C (stereo not drawn) [HU-MCA-13, 3-(3-allyl-2-methylenecyclohexyl)propanoic acid]
[1]
  EC50: > 10 µM
  IC50: > 10 µM
[2]; 10 μM, read-out: MCA-13 Max. Responce
  inhibition at 10 µM: 1.86%
[2]; read-out: RC50 (the source's name)
  IC50: > 10 µM
[3]
  EC50: > 10 µM
  IC50: > 10 µM
TRKC
  modulation of phosphorylation activity: slight inhibitory effect
TRK B
  modulation of phosphorylation activity: no effects
PKC
  effect on kinase activity: no effects
KDR-VEGFR
  effect on kinase activity: no effects
CAMK2α
  effect on kinase activity: no effects
PDGFRβ
  effect on kinase activity: no effects
JNK3
  effect on kinase activity: no effects
CK1
  effect on kinase activity: no effects
[4]; Agonist
  MCA-13 Max. Responce: 0%
[4]; Antagonist
  MCA-13 Max. Responce: 4.09%
[4]; Agonist, read-out: RC50 (the source's name)
  EC50: > 10 µM
[4]; Antagonist, read-out: RC50 (the source's name)
  IC50: > 10 µM
